Experimental data published in patent publication US20250302394A1, “QUANTITATIVE MAGNETIC RESONANCE IMAGING AND TUMOR FORECASTING” (priority 2021, published 2025).
“And” between values parts separate entries of the source, which are not always exact repeats. Identical values can stand only once. Like-named read-outs stand apart in the source and are kept apart here.

Tested on: TNBC

| Structure (SMILES) | median calibrated efficacy rate α of the drug | median calibrated efficacy rate α of the drug (good-response patient (100% shrinkage of tumor volume at completion of A/C), Framework 1) [day⁻¹] | median calibrated efficacy rate α of the drug (poor-response patient (33% shrinkage of tumor volume at completion of A/C), Framework 1) [day⁻¹] |
| --- | --- | --- | --- |
| O=P1(N(CCCl)CCCl)NCCCO1 (stereo not drawn) [cyclophosphamide] | 0.60 day⁻¹ and 0.34 day⁻¹ | – | – |
| COc1cccc2c1C(=O)c1c(O)c3c(c(O)c1C2=O)C[C@@](O)(C(=O)CO)C[C@@H]3O[C@H]1C[C@H](N)[C@H](O)[C@H](C)O1 [doxorubicin] | – | 0.47 | 0.24 |
